This note sets out measurements from US9771560B2, “High-throughput image-based chemical screening in zebrafish blastomere cell culture” (CHILDREN'S MEDICAL CENTER CORPORATION, priority 2012, dated 2017).

One series deals with zebrafish embryos. The series can be described thus: Whole-mount in situ hybridization with myoD riboprobe in chemical-treated zebrafish embryos. The settings on record: for myoD expression: embryos treated at the sphere stage, assayed at the 6-somite stage, CHB library chemicals diluted 300-fold, compared with DMSO; for perturbation of muscle development in vivo (myoD riboprobe): treated at the sphere stage, 6-somite stage, diluted 300-fold. In kind it is in vivo. Details: key to myoD expression: Level 1: decreased myoD staining at different levels, which are indicated in FIG. 9A; Level 2: decreased myoD staining at different levels, which are indicated in FIG. 9A; Level 3: decreased myoD staining at different levels, which are indicated in FIG. 9A; Level 4: decreased myoD staining at different levels, which are indicated in FIG. 9A. As for the experimental part:
FIGS. 9A-9C show the chemical genetics screens to identify modifiers of skeletal muscle development (related to FIG. 2) FIG. 9A, Embryos were treated with hits at the sphere stage. Once the control embryos reached the 6-somite stage, they were collected for whole-mount in situ hybridization with the myoD riboprobe. […] Flat mounted embryos stained with the myoD riboprobe at the 6-somite stage are shown with anterior to the left. Embryos were treated with (±)-6-Chloro-PB hydrobromide, LY-294002, 1-ACYL-PAF, or ATRA. All chemicals were from the CHB library and were diluted 300-fold. The level of myoD reduction was determined by comparing the intensity of myoD expression in these embryos with that in control embryos treated with DMSO. FIG. 9B, myf5-GFP; mylz2-mCherry embryos were collected at the oblong stage and disassociated. The resulting blastomere cells were aliquoted into a 96-well plate with pre-added chemicals. The culture medium contained 10 ng/ml bFGF to promote muscle development. Cells were treated with 50 μM tyrphostin AG 879, 50 μM tyrphostin AG 808, 50 μM tyrphostin AG 555, 50 μM PD 98059, 10 μM U0126, 10 μM LY-294002, 10 μM wortmannin, or 20 μM rapamycin. Cells were imaged after 2 days by the Celigo cytometer for GFP, mCherry, and bright-field signals. FIG. 9C, 1-cell-stage myf5-GFP; mylz2-mCherry embryos were injected with 250 pg fgf8-MO and 250 pg fgf24-MO and rescued by adding […] at the dome stage.
Whole mount in situ hybridizations were performed as previously described (Belting et al., 2001).

The subject of series [1] is zebrafish blastomere cells. Kind of series: Culture of disassociated myf5-GFP; mylz2-mCherry blastomere cells in zESC medium (validation and pathway inhibitor tests). In kind it is cell-based. As for the experimental part:
FIGS. 1A-1E show the chemical genetic screen to identify modifiers of skeletal muscle development. […] The yolk of the double transgenic embryo is mCherry positive, presumptively due to the maternal deposit of mCherry protein. mylz2-mCherry expression is not observed until 32 hpf. Its expression is first detected in anterior somites and then progressively spreads to posterior somites. […] Images were taken 48 hours after plating. Scale bars represent 250 μM. […] Blastomere cells from myf5-GFP; mylz2-mCherry embryos were cultured with or without bFGF and harvested at 24 hours. Results of bFGF treated cells are normalized to the expression of untreated cells. Error bars represent standard deviation (SD) from the triplicate quantitative RT-PCR reaction. All expressions are normalized to β-actin. […] Blastomere cells from myf5-GFP; mylz2-mCherry embryos were cultured with bFGF and harvested at 24 hours. Different populations were isolated by FACS. Results are normalized to the expression of cells of the double negative population. Error bars represent standard deviation (SD) from the triplicate quantitative RT-PCR reaction. All expressions are normalized to β-actin. […] 0.1% DMSO or 100 nM ATRA was added immediately. Images were taken 48 hours after plating. Scale bars represent 250 μM.
FIGS. 9A-9C show the chemical genetics screens to identify modifiers of skeletal muscle development (related to FIG. 2) FIG. 9A, Embryos were treated with hits at the sphere stage. Once the control embryos reached the 6-somite stage, they were collected for whole-mount in situ hybridization with the myoD riboprobe. […] Flat mounted embryos stained with the myoD riboprobe at the 6-somite stage are shown with anterior to the left. Embryos were treated with (±)-6-Chloro-PB hydrobromide, LY-294002, 1-ACYL-PAF, or ATRA. All chemicals were from the CHB library and were diluted 300-fold. The level of myoD reduction was determined by comparing the intensity of myoD expression in these embryos with that in control embryos treated with DMSO. […]

Series [2] deals with human iPSCs (00409, 05400, and BJ).
Procedure: Cells were differentiated by generating EBs in suspension culture 7 days and then transferred to matrigel-coated plates for additional 29 days. During the suspension culture the cells received the differentiation medium STEMDiff Apel medium ([sequence] technologies) supplied with 10 ng/ml bFGF (Invitrogen), 0.5 μM BIO (Santa Cruz Biotechnologies) and 20 μM forskolin (Santa Cruz Biotechnologies). Two-three days after plating EBs, the medium was switched to DMEM complemented with 2% horse serum for the remaining differentiation.
Embryoid bodies (EBs) from BJ, 00409 or 05400 iPSCs were exposed for 7 days to a serum-free differentiation medium containing bFGF (10 ng/ml), BIO (0.5 μM) and forskolin (20 μM) (medium added at day 1, 3 and 5). […] After 7 days, we measured the expression of a panel of markers specific for ectoderm, endoderm or mesoderm to quantify differentiation outcomes.
Series [3] has as its system zebrafish blastomere cells. The series can be described thus: High-throughput image-based chemical screen in myf5-GFP; mylz2-mCherry zebrafish blastomere cell culture with bFGF. The settings on record: medium supplemented with bFGF, 384-well, Celigo cytometer. The source says: (§1) FIGS. 2A-2C show the chemical genetic screens to identify modifiers of skeletal muscle development. FIG. 2A is a schematic of a high-throughput image-based chemical screening assay. Approximately 800 myf5-GFP; mylz2-mCherry double transgenic embryos were collected and disassociated at the oblong stage. The resulting blastomere cells were aliquoted into four 384-well plates with pre-added chemicals. We performed duplicates for each chemical to mitigate false positives. After 2 days, the 384-well plates were imaged using a Celigo cytometer. For each well, an image for each signal channel was captured. GFP and mCherry signals were determined by the Celigo cytometer's built-in software and confirmed by eye. […] Most of the hits could be grouped into three categories. […] The phenotype is presumptively due to inhibition of differentiation of muscle progenitors into mature muscle. […] This phenotype is presumptively due to the blocking of muscle progenitor commitment. […] Scale bars represent 250 μM. […] Scale bars represent 250 μM.
Disassociated blastomere cells were grown in zESC medium, which is composed of 70% LDF medium and 30% RTS34st-conditioned medium. The LDF medium contains 50% Leibowitz's L-15 (Invitrogen), 35% DMEM (Invitrogen), and 15% Ham's F-12 (Invitrogen), supplemented with 0.18 g/l sodium bicarbonate, 15 mM HEPES (Invitrogen), 1% L-Glutamine (Invitrogen), 10 μg/ml ciprofloxacin (Sigma-Aldrich), 100 μg/ml piperacillin (Sigma-Aldrich), 10 μg/ml amphotericin B (Sigma-Aldrich), 10 nM sodium selenite (Sigma-Aldrich), 1% N2 (Invitrogen), and 2% B27 (Invitrogen). The RTS34st conditioned medium was prepared by incubating fresh medium (Leibowitz's L-15 plus 15% FBS) on a confluent culture of RTS34st cells for 3 days.
(§2) Four 384-well plates were coated with 0.1% gelatin. Chemicals from the CHB library were diluted 150 times with zESC medium containing 1 ng/ml bFGF and were aliquoted 30 μl per well. Males and females of the myf5-GFP; mylz2-mCherry transgenic line were set up overnight and kept separated until morning when they were mixed for mate. Approximately 800 oblong-stage embryos were washed three times with E3 embryo water and were treated with pronase to remove chorions. Dechorionated embryos were washed with E3 embryo water three times and collected into a 50 ml falcon tube with 25 ml zESC medium containing 1 ng/ml bFGF. Embryos were disassociated by shaking approximately 20 times and were filtered through a 70 μm nylon mesh filter. The resulting single cells were diluted to 60 ml with zESC medium containing 1 ng/ml bFGF and aliquoted 30 μl per well into the four 384-well plates with pre-added chemicals. The cells were cultured in a 28-degree incubator without CO2. Cells were imaged by a Celigo cytometer (Cyntellect) under channels of GFP, mCherry, and transmitted light. The images were analyzed by the built-in software and confirmed eye.
To enable a higher throughput analysis of candidate modifiers of skeletal myogenesis, the embryo culture system was adapted to a semi-automated chemical screening platform. myf5-GFP; mylz2-mCherry embryos were collected from double transgenic parents and disassociated at the oblong stage. […] After one day, the cells were automatically imaged and analyzed using a Celigo cytometer for GFP, mCherry, and bright-field signals, and image analysis was confirmed by visual inspection (FIG. 2A).

Series [4] has as its system zebrafish blastomere cells. The series can be described thus: Sensitized chemical screen in zebrafish blastomere cell culture in the absence of bFGF. Format: cell-based.
Excerpt: as §1, §2
The strong muscle promoting effect of bFGF made it difficult to identify enhancers of skeletal muscle development in our original system. Only one out of 2,400 chemicals was identified to promote muscle development. To sensitize the system for identifying enhancers of skeletal muscle development, we repeated the screen in the absence of bFGF. […] Among the six hits were three GSKβ inhibitor (kenpaullone, SB415286, and SB216763), two calpain inhibitors (E-64-D and MDL28170) and one cAMP activator forskolin.

“Also recorded” adds a separate entry of the source. Counter-ions that a name gives are not always drawn.

Consider `Cl.Oc1cc2c(c(Cl)c1O)CCNCC2c1ccccc1` (racemic) [(±)-6-Chloro-PB hydrochloride], for which, in the series on zebrafish embryos, the myoD expression result was “Level 1” and the “perturbation of muscle development in vivo (myoD riboprobe)” value was “verified to perturb muscle development in vivo”. Turning to `CCCC[N+]1(C)[C@@H]2C[C@@H](OC(=O)[C@H](CO)c3ccccc3)C[C@H]1[C@@H]1O[C@@H]12.[Br-]` (single isomer, unassigned; (-)) [(-)-Scopolamine, n-Butyl-, bromide], the myoD expression result in the series on zebrafish embryos is on record as “Level 1”. `CC1=C(/C=C/C(C)=C/C=C/C(C)=C/C(=O)O)C(C)(C)CCC1` [ATRA, all-trans retinoic acid]: in series [1] (zESC medium with bFGF, 100 nM ATRA, images 48 hours after plating), the “skeletal muscle development in vitro” value is “blocked skeletal muscle development; also recorded: blocks muscle development in vitro”. Further, in the series on zebrafish embryos, the myoD expression entry is recorded as “Level 4” and the “perturbation of muscle development in vivo (myoD riboprobe)” value is recorded as “verified to perturb muscle development in vivo”. With `O=C1Nc2cc(Br)ccc2/C1=C1/Nc2ccccc2/C1=N\O` [BIO, 6-Bromoindirubin-3′-oxime], in series [2], the “toxicity compared with other GSK3β antagonists” value is on record as “lower toxicity”. In the case of `CCCNC(=O)[C@H]1O[C@@H]1C(=O)N[C@H](C(=O)N1CCC[C@H]1C(=O)OC)[C@@H](C)CC` [CA-074-Me], in series [3], the “change of myf5-GFP and mylz2-mCherry signals (hit category)” value (from here on “change”) is given as “only myf5-GFP expression”. For the molecule `CCOC(=O)[C@H]1O[C@@H]1C(=O)N[C@@H](CC(C)C)C(=O)NCCC(C)C` [E-64-D], the “GFP and mCherry signals” value in series [4] is “increase the GFP and mCherry signals”.

Consider `C=C1C(=O)O[C@@H]2C[C@@H](C)[C@@H]3C=CC(=O)[C@@]3(C)[C@@H](O)[C@H]12` [Helenalin], for which the myoD expression entry in the series on zebrafish embryos is recorded as “Toxic”. For the molecule `O=c1cc(N2CCOCC2)oc2c(-c3ccccc3)cccc12` [LY-294,002 hydrochloride], the myoD expression result with zebrafish embryos was “Level 2”. On the same count and under the same terms, then `CN(Cc1cnc2nc(N)nc(N)c2n1)c1ccc(C(=O)N[C@@H](CCC(=O)O)C(=O)O)cc1` [Methotrexate], with “No change”; and `COCC(=O)O[C@]1(CCN(C)CCCc2nc3ccccc3[nH]2)CCc2cc(F)ccc2[C@@H]1C(C)C.Cl.Cl` [Miberfradil dihydrochloride], with “Level 2”; and `CO[C@H]1C[C@@H]2CC[C@@H](C)[C@@](O)(O2)C(=O)C(=O)N2CCCC[C@H]2C(=O)O[C@H]([C@H](C)C[C@@H]2CC[C@@H](O)[C@H](OC)C2)CC(=O)[C@H](C)/C=C(\C)[C@@H](O)[C@@H](OC)C(=O)[C@H](C)C[C@H](C)/C=C/C=C/C=C/1C` [Rapamycin], with “Level 2”. For the molecule `Cl.NCCNC(=O)c1ncsc1-c1cccc(F)c1` [Ro 41-1049 hydrochloride], in series [3], the “change” value is “decreased amount of both fluorescent colors”. Besides, the myoD expression entry with zebrafish embryos was “Level 4”. With `Cn1cc(C2=C(c3ccc(Cl)cc3Cl)C(=O)NC2=O)c2ccccc21` [SB216763], in series [4], the “GFP and mCherry signals” value is “increase the GFP and mCherry signals”. `O=C1NC(=O)C(c2ccccc2[N+](=O)[O-])=C1Nc1ccc(O)c(Cl)c1` [SB415286]: in series [3], the “change” value was “increased expression of both markers”. Besides, the “GFP and mCherry signals” value in series [4] is “increase the GFP and mCherry signals”. With `NC(=O)c1ccc(-c2nc(-c3ccccn3)c(-c3ccc4c(c3)OCO4)[nH]2)cc1` [SB-431542], in the series with zebrafish embryos, the myoD expression result was “No change”. As to `Cl.Cl.Cl.NCCCCNCCCN` [Spermidine trihydrochloride], the myoD expression entry in the series on zebrafish embryos is on record as “Level 1”. `Clc1cnc(Oc2ccc(Oc3ncc(Cl)cc3Cl)cc2)c(Cl)c1` [TCPOBOP]: the “change” value in series [3] is recorded as “only myf5-GFP expression”. In the case of `N#C/C(=C\c1c[nH]c2ccccc12)C(=O)c1ccc(O)c(O)c1` [Tyrphosfin AG 808], the myoD expression result with zebrafish embryos is listed as “Level 1”.

As to `C[C@@H](NC(=O)/C(C#N)=C/c1ccc(O)c(O)c1)c1ccccc1` [Tyrphostin AG 527], in the series with zebrafish embryos, the myoD expression entry is “No Change; also recorded: Level 1”. Consider `CC(C)(C)c1cc(/C=C(\C#N)C(N)=S)cc(C(C)(C)C)c1O` [Tyrphostin AG 879], for which, in series [3], the “change” value was “decreased amount of both fluorescent colors”. Also, the myoD expression result with zebrafish embryos is “Toxic”. Regarding `O=C1Cc2c([nH]c3ccc(Br)cc23)-c2ccccc2N1` [kenpaullone, 9-bromopaullone], the “GFP and mCherry signals” value in series [4] was “increase the GFP and mCherry signals”. As for MDL28170, the “GFP and mCherry signals” value in series [4] is “increase the GFP and mCherry signals”. In the case of basic fibroblast growth factor [bFGF], the “GFP and mCherry expression of cultured blastomere cells” value in series [1] (bFGF added to zESC medium) is “majority of cells became GFP and mCherry double positive”. Also, the “expression of other myogenic genes (myoD, mrf4, myog), quantitative RT-PCR” value in series [1] (cultured with bFGF, harvested at 24 hours) is “highly expressed”.
